Source: patent US20220340566A1, “BENZYL AMINE-CONTAINING 5,6-HETEROAROMATIC COMPOUNDS USEFUL AGAINST MYCOBACTERIAL INFECTION” (priority 2019, published 2022)

Experiments:
[1] = Metabolic stability test in pooled human liver microsomes; assay type: in vitro ADME; details: human liver microsomes 0.5 mg protein/mL, 1 mmol/L NADPH, 37° C., 30 minutes
How it was run: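 Remaining-rate readout: parent compound left after 30 min versus 0 min (set as 100%), measured by LC/MS/MS or SPE/MS. Oxidative reaction ran at 37° C. with 1 mmol/L NADPH, 0.5 mg protein/mL pooled human microsomes, 50 mmol/L Tris-HCl pH 7.4 buffer.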

[2] = tested on: Mycobacterium avium ATCC700898; assay: Determination of IC85 against M. avium (resazurin fluorescence); assay type: cell-based; details: Mycobacterium avium, ATCC700898, M. avium ATCC700898, CAMHB medium, 37° C., 3 days incubation then resazurin, fluorescence one day later; read-out: IC85

Row | Structure (SMILES) | MS_h_% (remaining amount of compound after reaction, 0 minute = 100%) [1] [%] | IC85 [2] [µM]
1 | CCc1nc2cc(F)ccn2c1C(=O)NCc1ccc(N2CCN(c3ccc(OC(F)(F)F)cc3)[C@@H](CC)C2)c(F)c1.Cl [Compound I-2-4] | 90.1 | 0.0065
2 | Cc1nc2ccc(F)cn2c1C(=O)NCc1ccc(N2CCN(c3ccc(C(F)(F)F)cn3)CC2)c(C(F)(F)F)c1 [Compound I-2-5] | 81.8 | 0.42
3 | CCCC[C@H]1CN(c2ccc(CNC(=O)c3c(CC)nc4cc(F)ccn34)cc2F)CCN1c1ccc(OC(F)(F)F)cc1.Cl [Compound I-2-6] | 80.8 | 0.0044
4 | Cc1cn2c(C(=O)NCc3ccc(N4CCN(c5ccc(C(F)(F)F)cn5)CC4)c(C(F)(F)F)c3)c(C)nc2cc1Cl [Compound I-2-7] | 79.3 | 0.59
5 | Cc1nc2ccc(F)cn2c1C(=O)NCc1ccc(N2CC(c3ccc(OC(F)(F)F)cc3)C2)c(F)c1 [Compound I-2-8] | 74.9 | 0.13
6 | CC[C@H]1CN(c2ccc(CNC(=O)c3c(C)nn4ccc(OC)cc34)cc2F)CCN1c1ccc(OC(F)(F)F)cc1.Cl [Compound I-2-9] | 73.5 | 0.019
7 | CCc1nc2ccc(Cl)cn2c1C(=O)NCc1ccc(N2CCN(c3ccc(OC(F)(F)F)cc3F)[C@@H](CC)C2)c(F)c1.Cl [Compound I-2-10] | 72.2 | 0.023
8 | Cc1nc2ccc(Br)cn2c1C(=O)NCc1ccc(N2CCN(c3ccc(C(F)(F)F)cn3)CC2)c(F)c1 [Compound I-2-11] | 71.7 | 0.02
9 | Cc1ccn2c(C(=O)NCc3ccc(N4CCN(c5ccc(OC(F)(F)F)cc5)CC4)c(F)c3)c(C)nc2c1 [Compound I-2-12] | 71.4 | 0.023
10 | Cc1ccn2c(C(=O)NCc3ccc(N4CCN(c5ccc(C(F)(F)F)cn5)CC4)c(C(F)(F)F)c3)c(C)nc2c1 [Compound I-2-13] | 67.6 | 0.35
11 | Cc1nc2ccc(Br)cn2c1C(=O)NCc1ccc(N2CCN(c3ccc(OC(F)(F)F)cc3)[C@@H](C)C2)c(F)c1 [Compound I-2-14] | 67 | 0.0045
12 | Cc1ccn2c(C(=O)NCc3ccc(N4CCN(c5ccc(OC(F)(F)F)cc5)[C@@H](C)C4)c(C(F)(F)F)c3)c(C)nc2c1 [Compound I-2-15] | 59.2 | 0.25
13 | CCc1nc2ccc(Cl)cn2c1C(=O)NCc1ccc(N2CCN(c3ccc(OC(F)(F)F)cc3)C3(CCCC3)C2)c(F)c1 [Compound I-2-16] | 58.2 | 0.086
14 | CCc1nc2cc(F)ccn2c1C(=O)NCc1ccc(O[C@H]2C[C@H](Oc3ccc(OC(F)(F)F)cc3)C2)c(F)c1.Cl [Compound I-3-1] | 99.1 | 0.054
15 | CCc1nc2ccc(Cl)cn2c1C(=O)NCc1ccc(-c2cccc(OC(F)(F)F)c2)c(F)c1 [Compound I-3-2] | 97.7 | 0.0023
16 | CCc1nc2ccc(Cl)cn2c1C(=O)NCc1ccc(-c2ccc(OC(C)C)cc2)c(F)c1 [Compound I-3-3] | 96.1 | 0.0094
17 | Cc1ccn2c(C(=O)NCc3ccc(-c4ccc(OCC(F)(F)F)cc4)c(F)c3)c(C)nc2c1 [Compound I-3-4] | 94.6 | 0.043
18 | [2H]c1c(C([2H])([2H])[2H])c([2H])c2nc(C)c(C(=O)NCc3ccc(C4CCN(c5ccc(OC(F)(F)F)cc5)CC4)c(F)c3)n2c1[2H] [Compound I-3-5] | 93.7 | 0.021
19 | Cc1cn2c(C(=O)NCc3ccc(N4CCC(c5ccc(OC(F)(F)F)cc5)CC4)c(F)c3)c(C)nc2s1.Cl [Compound I-3-6] | 91.7 | 0.26
20 | CCc1nc2ccc(Cl)cn2c1C(=O)NCc1ccc(-c2ccc(OC(F)(F)F)cc2)c(F)c1 [Compound I-3-7] | 89.5 | 0.056
21 | COc1ccn2nc(C)c(C(=O)NCc3ccc(N4CCC(c5ccc(OC(F)(F)F)cc5)CC4)cc3)c2c1 [Compound I-3-8] | 87.1 | 0.028
22 | Cc1ccn2c(C(=O)NCc3ccc(-c4ccc(OC(C)C)cc4)c(F)c3)c(C)nc2c1 [Compound I-3-9] | 85.9 | 0.13
23 | Cc1cn2c(C(=O)NCc3ccc(N4CCC5(CCN(c6ccc(C(F)(F)F)cc6)CC5)CC4)c(F)c3)c(C)nc2s1 [Compound I-3-10] | 84.9 | 0.029

Row | Structure (SMILES) | MS_h_% (remaining amount of compound after reaction, 0 minute = 100%) [1] [%] | IC85 [2] [µM]
24 | [2H]c1c(C([2H])([2H])[2H])c([2H])n2c(C(=O)NCc3ccc(-c4ccc(C(F)(F)F)cc4)cc3)c(C)nc2c1[2H] [Compound I-3-11] | 84.7 | 0.0028
25 | Cc1cn2c(C(=O)NCc3ccc(N4CC=C(c5ccc(OC(F)(F)F)cc5)CC4)c(F)c3)c(C)nc2s1.Cl [Compound I-3-12] | 84.4 | 0.34
26 | Cc1cn2c(C(=O)NCc3ccc(N4CCC(c5ccc(OC(F)(F)F)cc5)CC4)c(Cl)c3)c(C)nc2s1.Cl [Compound I-3-13] | 84 | 0.35
27 | Cc1cn2c(C(=O)NCc3ccc(N4CCN(c5ccc(OC(F)(F)F)cc5)C(C)(C)C4)c(F)c3)c(C)nc2s1 [Compound I-3-14] | 82.7 | 0.19
28 | [2H]c1c(C([2H])([2H])[2H])c([2H])n2c(C(=O)NCc3ccc(Oc4cccc(C(F)(F)F)c4)cc3)c(C)nc2c1[2H] [Compound I-3-15] | 82.4 | 0.23
29 | Cc1cn2c(C(=O)NCc3cc(F)c(N4CCC(c5ccc(OC(F)(F)F)cc5)CC4)c(F)c3)c(C)nc2s1.Cl [Compound I-3-16] | 81.4 | 0.11
30 | Cc1ccn2c(C(=O)NCc3ccc4oc(-c5ccc(OC(F)(F)F)cc5)nc4c3)c(C)nc2c1.Cl [Compound I-3-17] | 81.1 | 0.86
31 | CCc1nc2ccc(Cl)cn2c1C(=O)NCc1ccc(-c2ccc(OC(F)(F)F)cc2)nc1 [Compound I-3-18] | 80.9 | 0.19
32 | Cc1ccn2c(C(=O)NCc3ccc(Oc4ccc(C(F)(F)F)cc4)cc3)c(C)nc2c1 [Compound I-3-19] | 80.9 | 0.44
33 | CCc1nc2ccc(Cl)cn2c1C(=O)NCc1ccc(OC2CCC(Oc3ccc(OC(F)(F)F)cc3)CC2)c(F)c1.Cl (centres unmarked) [Compound I-3-20] | 80.8 | 0.018
34 | Cc1ccc2nc(C)c(C(=O)NCc3ccc(Oc4cccc(C(F)(F)F)c4)cc3)n2c1 [Compound I-3-21] | 79.1 | 0.13
35 | Cc1cn2c(C(=O)NCc3ccc(-c4ccc(OC(C)C)cc4)c(F)c3)c(C)nc2s1 [Compound I-3-22] | 78.5 | 0.37
36 | Cc1nc2ccc(F)cn2c1C(=O)NCc1ccc(N2CCN(c3ccc(OC(F)(F)F)cc3)[C@@H](C)C2)cc1 [Compound I-3-23] | 77.8 | 0.015
37 | Cc1nc2ccc(Cl)cn2c1C(=O)NCc1cc(F)c2c(c1)CCN(C1CC=C(OC(F)(F)F)CC1)C2.Cl (centres unmarked) [Compound I-3-24] | 77.5 | 0.13
38 | CCc1nc2ccc(Cl)cn2c1C(=O)NCc1ccc(-n2ccc(C(F)(F)F)n2)cc1 [Compound I-3-25] | 77 | 0.14
39 | Cc1ccn2c(C(=O)NCc3ccc(N4CCN(C5CN(CC(F)(F)F)C5)[C@@H](C)C4)c(F)c3)c(C)nc2c1 [Compound I-3-26] | 77 | 0.96
40 | Cc1nc2ccc(Cl)cn2c1C(=O)NCc1ccc(N2CCC(c3ccc(OC(F)(F)F)cc3)CC2)cc1 [Compound I-3-27] | 75.5 | 0.012
41 | Cc1ccn2c(C(=O)NCc3ccc(N4CCN(c5ccc(OC(F)(F)F)cc5)[C@@H](C)C4)cc3)c(C)nc2c1 [Compound I-3-28] | 75.4 | 0.036
42 | Cc1cn2c(C(=O)NCc3ccc(N4CCN(c5ccc(OC(F)(F)F)cc5)[C@@H](C)C4)c(Cl)c3)c(C)nc2s1.Cl [Compound I-3-29] | 75.1 | 0.061
43 | Cc1cn2c(C(=O)NCc3ccc(-c4ccc(OCC(F)(F)F)cc4)c(F)c3)c(C)nc2s1 [Compound I-3-30] | 75.1 | 0.031
44 | Cc1cn2c(C(=O)NCc3ccc(C4CCN(c5ccc(OC(F)(F)F)cc5)CC4)c(F)c3)c(C)nc2s1 [Compound I-3-31] | 73.9 | 0.33
45 | Cc1cn2c(C(=O)NCc3ccc(N4CCN(c5ccc(OC(F)(F)F)cc5)[C@@H](C)C4)c(F)c3)c(C)nc2s1 [Compound I-3-32] | 72.6 | 0.82
46 | Cc1ccc2nc(C)c(C(=O)NCc3ccc(-c4ccc(C(F)(F)F)cc4)cc3)n2c1 [Compound I-3-33] | 72.6 | 0.0022
